The nature of this data set: recombinant barcode read abundance after kanamycin selection (control-corrected) (log10(CPM+1)); higher = more efficient recombination; sequences stand for … in AGTGCAGAGAAAATCGGCCAGTTTTCTCTGCCTGCAGTCCGCATGCCGT…AGATTTATGCAGCGGACTGCCTTTCTCCCAAAGTGATAAACCGGACAGTATCATGGACCGGTTTTCCCGGTAATCCGTATTTGCAAGGTTGGTTTCACT; site = the 11-nt target. In short, it runs like this: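 A promoter, a target, a barcode and the first 104 bridge RNA bases under J23119 made up each oligo. Oligos were Gibson-cloned into a vector bearing the other 73 bp and a T7-inducible recombinase, then co-electroporated into E. coli with a donor plasmid and plated in duplicate on chloramphenicol/ampicillin LB agar (control) or chloramphenicol/ampicillin/kanamycin with 0.1 mM IPTG. Recombination efficiency is the averaged, control-corrected counts per million of recombinant-junction barcodes. Reported values are log10(CPM+1).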

Data on 77 sequences can be found in the supplement of paper PMC11208160.
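Also: IS621 recombinase and bridge RNA in Escherichia coli cells.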

Take “GACTCTCCTTGGGTTCTAACCTGTTGCAT (site GACTCTCCTAC)”: the “recombinant barcode read abundance (log10)” value was found to be 1.45.

“GACTCTCCTTGGGTTCTAACCTGTTGCAT (site GACTCTCCTAG)”: the “recombinant barcode read abundance (log10)” value was 0.186.

As to “GACTCTCCTTGGGTTCTAACCTGTTGCAT (site GACTCTCCTAT)”, the “recombinant barcode read abundance (log10)” value was 0.387.

With “GACTCTCCTTGGGTTCTAACCTGTTGCGT (site GACTCTCCTAA)”, the “recombinant barcode read abundance (log10)” value is 0.103.

Turning to “GACTCTCCTTGGGTTCTAACCTGTTGCGT (site GACTCTCCTAC)”, the “recombinant barcode read abundance (log10)” value is 1.75.

In the case of “GACTCTCCTTGGGTTCTAACCTGTTGCGT (site GACTCTCCTAG)”, the “recombinant barcode read abundance (log10)” value was 0.

As for “GACTCTCCTTGGGTTCTAACCTGTTGCGT (site GACTCTCCTAT)”, the “recombinant barcode read abundance (log10)” value worked out at 0.321.

Take “GACTGCCCTTGGGTTCTAACCTGTTGCCT (site GACTGCCCTAG)”: the “recombinant barcode read abundance (log10)” value was found to be 0.166.

For “GACTGCCCTTGGGTTCTAACCTGTTGCCT (site GCCTGCCCTAG)”, the “recombinant barcode read abundance (log10)” value came out at 0.164.

For the sequence “GACTGCCCTTGGGTTCTAACCTGTTGCCT (site GGCTGCCCTAG)”, the “recombinant barcode read abundance (log10)” value was determined as 0.0269.

Regarding “GACTGCCCTTGGGTTCTAACCTGTTGCCT (site GTCTGCCCTAG)”, the “recombinant barcode read abundance (log10)” value is 0.129.

On to “GACTGGCCTTGGGTTCTAACCTGTTGCTT (site GACTGGCCTAA)”, for which the “recombinant barcode read abundance (log10)” value came out at 0.389.

Turning to “GACTGGCCTTGGGTTCTAACCTGTTGCTT (site GACTGGGCTCA)”, the “recombinant barcode read abundance (log10)” value was found to be 0.154.

Take “GACTTGACTTGGGTTCTAACCTGTTGCCT (site GACTTGACTAG)”: the “recombinant barcode read abundance (log10)” value is 1.13.

Regarding “GACTTGACTTGGGTTCTAACCTGTTGCCT (site GACTTGCCTAG)”, the “recombinant barcode read abundance (log10)” value amounted to 0.0736.

In the case of “GACTTGACTTGGGTTCTAACCTGTTGCCT (site GACTTGGCTAG)”, the “recombinant barcode read abundance (log10)” value is 0.171.

Regarding “GACTTGACTTGGGTTCTAACCTGTTGCCT (site GACTTGTCTAG)”, the “recombinant barcode read abundance (log10)” value worked out at 0.0657.

For “GACTTGTCTTGGGTTCTAACCTGTTGCCT (site GACTTGACTAG)”, the “recombinant barcode read abundance (log10)” value was found to be 0.0686.

On to “GACTTGTCTTGGGTTCTAACCTGTTGCCT (site GACTTGCCTAG)”, for which the “recombinant barcode read abundance (log10)” value came out at 0.0458.

Turning to “GACTTGTCTTGGGTTCTAACCTGTTGCCT (site GACTTGGCTAG)”, the “recombinant barcode read abundance (log10)” value is 0.0443.

In the case of “GACTTGTCTTGGGTTCTAACCTGTTGCCT (site GACTTGTCTAG)”, the “recombinant barcode read abundance (log10)” value was found to be 1.41.

Regarding “GACTTTCCTTGGGTTCTAACCTGTTGCAT (site GACTTACCTAT)”, the “recombinant barcode read abundance (log10)” value is 0.01.

Take “GACTTTCCTTGGGTTCTAACCTGTTGCAT (site GACTTCCCTAT)”: the “recombinant barcode read abundance (log10)” value stood at 0.272.

“GACTTTCCTTGGGTTCTAACCTGTTGCAT (site GACTTGCCTAT)”: the “recombinant barcode read abundance (log10)” value was 0.0607.

As for “GACTTTCCTTGGGTTCTAACCTGTTGCAT (site GACTTTCCTAT)”, the “recombinant barcode read abundance (log10)” value was 0.101.

Turning to “GAGAACACTTGGGTTCTAACCTGTTGCCT (site AAGAACACTAG)”, the “recombinant barcode read abundance (log10)” value came to 1.09.

Consider “GAGAACACTTGGGTTCTAACCTGTTGCCT (site CAGAACACTAG)”, for which the “recombinant barcode read abundance (log10)” value worked out at 0.439.

“GAGAACACTTGGGTTCTAACCTGTTGCCT (site GAGAACACTAG)”: the “recombinant barcode read abundance (log10)” value was found to be 2.01.

“GAGAACACTTGGGTTCTAACCTGTTGCCT (site TAGAACACTAG)”: the “recombinant barcode read abundance (log10)” value amounted to 0.852.

In the case of “GAGAAGCCTTGGGTTCTAACCTGTTGCCT (site AAGAAGCCTAG)”, the “recombinant barcode read abundance (log10)” value was 1.17.

Regarding “GAGAAGCCTTGGGTTCTAACCTGTTGCCT (site CAGAAGCCTAG)”, the “recombinant barcode read abundance (log10)” value was found to be 0.409.

In the case of “GAGAAGCCTTGGGTTCTAACCTGTTGCCT (site GAGAAGCCTAG)”, the “recombinant barcode read abundance (log10)” value was 2.12.

“GAGAAGCCTTGGGTTCTAACCTGTTGCCT (site TAGAAGCCTAG)”: the “recombinant barcode read abundance (log10)” value came out at 0.639.

For “GAGAGAGCTTGGGTTCTAACCTGTTGCAT (site GAGAGAGCTAT)”, the “recombinant barcode read abundance (log10)” value stood at 1.41.

As to “GAGAGAGCTTGGGTTCTAACCTGTTGCAT (site GAGCGAGCTAT)”, the “recombinant barcode read abundance (log10)” value worked out at 0.193.

In the case of “GAGAGAGCTTGGGTTCTAACCTGTTGCAT (site GAGGGAGCTAT)”, the “recombinant barcode read abundance (log10)” value was found to be 0.0621.

For “GAGAGAGCTTGGGTTCTAACCTGTTGCAT (site GAGTGAGCTAT)”, the “recombinant barcode read abundance (log10)” value is 0.14.

“GAGAGGTCTTGGGTTCTAACCTGTTGCCT (site GAGAGGTCTAA)”: the “recombinant barcode read abundance (log10)” value is 0.298.

For the sequence “GAGAGGTCTTGGGTTCTAACCTGTTGCCT (site GAGAGGTCTAC)”, the “recombinant barcode read abundance (log10)” value worked out at 0.0681.

Regarding “GAGAGGTCTTGGGTTCTAACCTGTTGCCT (site GAGAGGTCTAG)”, the “recombinant barcode read abundance (log10)” value is 1.56.

With “GAGAGGTCTTGGGTTCTAACCTGTTGCCT (site GAGAGGTCTAT)”, the “recombinant barcode read abundance (log10)” value was 0.203.

Regarding “GAGATGTCTTGGGTTCTAACCTGTTGCCT (site GAGATGTCTAG)”, the “recombinant barcode read abundance (log10)” value worked out at 2.43.

As for “GAGATGTCTTGGGTTCTAACCTGTTGCCT (site GCGATGTCTAG)”, the “recombinant barcode read abundance (log10)” value was 0.147.

With “GAGATGTCTTGGGTTCTAACCTGTTGCCT (site GGGATGTCTAG)”, the “recombinant barcode read abundance (log10)” value was found to be 0.266.

As to “GAGATGTCTTGGGTTCTAACCTGTTGCCT (site GTGATGTCTAG)”, the “recombinant barcode read abundance (log10)” value was determined as 0.577.

Turning to “GAGCACCCTTGGGTTCTAACCTGTTGCCA (site GAGCACCCTTG)”, the “recombinant barcode read abundance (log10)” value came out at 1.77.

“GAGCACCCTTGGGTTCTAACCTGTTGCCA (site GAGCTCACTTG)”: the “recombinant barcode read abundance (log10)” value came out at 0.0464.

Consider “GAGCAGTCTTGGGTTCTAACCTGTTGCCT (site GAGAAGTCTAG)”, for which the “recombinant barcode read abundance (log10)” value was found to be 0.

For the sequence “GAGCAGTCTTGGGTTCTAACCTGTTGCCT (site GAGCAGTCTAG)”, the “recombinant barcode read abundance (log10)” value amounted to 2.4.

In the case of “GAGCAGTCTTGGGTTCTAACCTGTTGCCT (site GAGGAGTCTAG)”, the “recombinant barcode read abundance (log10)” value was 0.117.

Regarding “GAGCAGTCTTGGGTTCTAACCTGTTGCCT (site GAGTAGTCTAG)”, the “recombinant barcode read abundance (log10)” value was found to be 0.214.

In the case of “GAGCCACCTTGGGTTCTAACCTGTTGCTG (site GAGCCACCTCA)”, the “recombinant barcode read abundance (log10)” value was 1.58.

For “GAGCCACCTTGGGTTCTAACCTGTTGCTG (site GAGCCGCCTCG)”, the “recombinant barcode read abundance (log10)” value is 0.104.

Take “GAGCCGACTTGGGTTCTAACCTGTTGCAG (site GAGCCGACTCT)”: the “recombinant barcode read abundance (log10)” value turned out to be 2.25.

Take “GAGCCGACTTGGGTTCTAACCTGTTGCAG (site TAGCCGGCTCT)”: the “recombinant barcode read abundance (log10)” value was found to be 0.0779.

For the sequence “GAGCCGACTTGGGTTCTAACCTGTTGCCT (site GAGCAGACTAG)”, the “recombinant barcode read abundance (log10)” value was found to be 0.288.

“GAGCCGACTTGGGTTCTAACCTGTTGCCT (site GAGCCGACTAG)”: the “recombinant barcode read abundance (log10)” value was 1.56.

Consider “GAGCCGACTTGGGTTCTAACCTGTTGCCT (site GAGCGGACTAG)”, for which the “recombinant barcode read abundance (log10)” value stood at 0.274.

Regarding “GAGCCGACTTGGGTTCTAACCTGTTGCCT (site GAGCTGACTAG)”, the “recombinant barcode read abundance (log10)” value came to 0.0365.

For “GAGCCGCCTTGGGTTCTAACCTGTTGCAT (site GAGCCGCCTAT)”, the “recombinant barcode read abundance (log10)” value came to 1.48.

On to “GAGCCGCCTTGGGTTCTAACCTGTTGCAT (site GGGACGCCTAT)”, for which the “recombinant barcode read abundance (log10)” value amounted to 0.0756.

Consider “GAGCCGCCTTGGGTTCTAACCTGTTGCCG (site GAGCCACCTCA)”, for which the “recombinant barcode read abundance (log10)” value was 0.118.

Take “GAGCCGCCTTGGGTTCTAACCTGTTGCCG (site GAGCCGCCTCG)”: the “recombinant barcode read abundance (log10)” value is 1.04.

“GAGCCTACTTGGGTTCTAACCTGTTGCCT (site GAACCTACTCG)”: the “recombinant barcode read abundance (log10)” value came out at 0.0224.

With “GAGCCTACTTGGGTTCTAACCTGTTGCCT (site GAGCCTACTAG)”, the “recombinant barcode read abundance (log10)” value was 1.29.

In the case of “GAGCCTACTTGGGTTCTAACCTGTTGCTA (site AAGCCTACTTA)”, the “recombinant barcode read abundance (log10)” value was 0.25.

For the sequence “GAGCCTACTTGGGTTCTAACCTGTTGCTA (site GAGCCTACTTA)”, the “recombinant barcode read abundance (log10)” value was found to be 1.02.

As to “GAGCGAGCTTGGGTTCTAACCTGTTGCTA (site GAGCGAGCTTA)”, the “recombinant barcode read abundance (log10)” value worked out at 1.31.

Turning to “GAGCGAGCTTGGGTTCTAACCTGTTGCTA (site GAGCGGACTTA)”, the “recombinant barcode read abundance (log10)” value amounted to 0.267.

Regarding “GAGCGCACTTGGGTTCTAACCTGTTGCGG (site GAGCGCACTCC)”, the “recombinant barcode read abundance (log10)” value came to 2.13.

On to “GAGCGCACTTGGGTTCTAACCTGTTGCGG (site GAGCGCACTCT)”, for which the “recombinant barcode read abundance (log10)” value was 1.51.

Turning to “GAGCGCTCTTGGGTTCTAACCTGTTGCTA (site GAGCGCTCTAA)”, the “recombinant barcode read abundance (log10)” value amounted to 0.167.

On to “GAGCGCTCTTGGGTTCTAACCTGTTGCTA (site GAGCGCTCTCA)”, for which the “recombinant barcode read abundance (log10)” value worked out at 0.223.

On to “GAGCGCTCTTGGGTTCTAACCTGTTGCTA (site GAGCGCTCTGA)”, for which the “recombinant barcode read abundance (log10)” value turned out to be 0.12.

Regarding “GAGCGCTCTTGGGTTCTAACCTGTTGCTA (site GAGCGCTCTTA)”, the “recombinant barcode read abundance (log10)” value turned out to be 0.636.

In the case of “GAGCGCTCTTGGGTTCTAACCTGTTGCTC (site GAGCGCTCTAA)”, the “recombinant barcode read abundance (log10)” value is 0.525.

Turning to “GAGCGCTCTTGGGTTCTAACCTGTTGCTC (site GAGCGCTCTCA)”, the “recombinant barcode read abundance (log10)” value came to 0.0599.
